From US9260439B2, “Dihydropyrrolopyrimidine derivatives” (PFIZER INC., priority 2014, dated 2016)

Each compound was assayed against truncated PI3Kα (p110α/iSH2 p85α) (Homo sapiens (Human), UniProt P42336) (assay: PI3KA_Act fluorescence polarization kinase assay (Ki)). Conditions: 1 mM ATP.
Type: biochemical
In short: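 p110α/iSH2 p85α (0.5 nM) was reacted with 30 μM sonicated PIP2 in 50 mM HEPES pH 7.4, 150 mM NaCl, 5 mM MgCl2, 1 mM DTT and 0.05% CHAPS for 30 min at room temperature, then stopped with EDTA. PIP3 was detected by fluorescence polarization (GST-Grp1 PH domain/TAMRA-PIP3), and Ki came from a Morrison tight-binding fit.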

truncated PI3Kα (p110α/iSH2 p85α), sequence (P42336 whole entry, the tested form may be a part): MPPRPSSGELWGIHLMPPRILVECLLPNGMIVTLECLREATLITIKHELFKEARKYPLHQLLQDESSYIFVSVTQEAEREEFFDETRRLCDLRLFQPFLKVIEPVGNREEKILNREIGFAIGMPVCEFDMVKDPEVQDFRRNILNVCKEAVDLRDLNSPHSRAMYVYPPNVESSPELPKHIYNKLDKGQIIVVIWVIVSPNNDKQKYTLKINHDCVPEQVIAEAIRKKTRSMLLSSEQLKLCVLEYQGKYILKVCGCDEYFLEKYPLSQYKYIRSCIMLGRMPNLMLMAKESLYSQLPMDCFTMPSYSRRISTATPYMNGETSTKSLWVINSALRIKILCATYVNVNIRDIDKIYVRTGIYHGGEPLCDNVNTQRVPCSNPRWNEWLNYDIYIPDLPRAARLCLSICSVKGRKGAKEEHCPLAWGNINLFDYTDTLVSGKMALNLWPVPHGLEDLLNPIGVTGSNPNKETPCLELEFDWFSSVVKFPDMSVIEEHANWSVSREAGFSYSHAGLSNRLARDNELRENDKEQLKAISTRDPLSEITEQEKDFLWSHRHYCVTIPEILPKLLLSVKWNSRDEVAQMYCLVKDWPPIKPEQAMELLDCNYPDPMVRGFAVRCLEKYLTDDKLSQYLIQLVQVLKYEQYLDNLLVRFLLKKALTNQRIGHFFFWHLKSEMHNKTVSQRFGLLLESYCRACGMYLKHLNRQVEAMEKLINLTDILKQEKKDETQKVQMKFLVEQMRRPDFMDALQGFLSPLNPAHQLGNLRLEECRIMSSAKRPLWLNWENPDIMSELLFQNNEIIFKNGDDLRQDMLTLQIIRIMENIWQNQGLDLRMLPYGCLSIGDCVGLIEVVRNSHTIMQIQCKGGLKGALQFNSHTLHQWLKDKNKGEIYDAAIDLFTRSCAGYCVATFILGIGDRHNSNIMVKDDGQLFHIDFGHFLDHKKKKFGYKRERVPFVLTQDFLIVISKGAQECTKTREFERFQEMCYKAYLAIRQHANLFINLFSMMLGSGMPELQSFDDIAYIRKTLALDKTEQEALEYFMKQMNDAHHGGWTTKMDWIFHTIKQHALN

Q: How did the “PI3KA_Act Ki” value turn out when C[C@]1(N2CCc3c(-c4cnc(N)nc4)nc(N4CCOCC4)nc32)CCN(C(=O)[C@H]2C[C@H]2F)C1 [Example 335, {(3S)-3-[4-(2-aminopyrimidin-5-yl)-2-(morpholin-4-yl)-5,6-dihydro-7H-pyrrolo[2,3-d]pyrimidin-7-yl]-3-methylpyrrolidin-1-yl}[(1R,2R)-2-fluorocyclopropyl] methanone] was run?
A: Its value is under 0.018 nM.

Q: Which “PI3KA_Act Ki” value does the source give for C[C@]1(N2CCc3c(-c4cnc(N)nc4)nc(N4CCOCC4)nc32)CCN(C(=O)[C@H]2CC2(F)F)C1 [Example 336, {(3S)-3-[4-(2-aminopyrimidin-5-yl)-2-(morpholin-4-yl)-5,6-dihydro-7H-pyrrolo[2,3-d]pyrimidin-7-yl]-3-methylpyrrolidin-1-yl}[(1R)-2,2-difluorocyclopropyl] methanone] here?
A: Its value is 0.054 nM.

Q: For C[C@]1(N2CCc3c(-c4cnc(N)nc4)nc(N4CCOCC4)nc32)CCN(C(=O)[C@@H]2CC2(F)F)C1 [Example 337, {(3S)-3-[4-(2-aminopyrimidin-5-yl)-2-(morpholin-4-yl)-5,6-dihydro-7H-pyrrolo[2,3-d]pyrimidin-7-yl]-3-methylpyrrolidin-1-yl}[(1S)-2,2-difluorocyclopropyl] methanone], which “PI3KA_Act Ki” value is on record?
A: The value was under 0.018 nM.

Q: For C[C@]1(N2CCc3c(-c4cnc(N)nc4)nc(N4CCOCC4)nc32)CCN(C(=O)C2(N)CC2)C1.Cl [Example 340, (1-aminocyclopropyl) {(3S)-3-[4-(2-aminopyrimidin-5-yl)-2-(morpholin-4-yl)-5,6-dihydro-7H-pyrrolo[2,3-d]pyrimidin-7-yl]-3-methylpyrrolidin-1-yl}methanone hydrochloride], which “PI3KA_Act Ki” value is on record?
A: Its value is 0.234 nM.

Q: C[C@]1(N2CCc3c(-c4cnc(N)nc4)nc(N4CCOCC4)nc32)CCN(C(=O)C2CCC2)C1 [Example 341, {(3S)-3-[4-(2-aminopyrimidin-5-yl)-2-(morpholin-4-yl)-5,6-dihydro-7H-pyrrolo[2,3-d]pyrimidin-7-yl]-3-methylpyrrolidin-1-yl}(cyclobutyl)meth-anone] was tested. Which “PI3KA_Act Ki” value did it give?
A: Its value is under 0.018 nM.

Q: For C[C@@]1(N2CCc3c(-c4cnc(N)nc4)nc(N4CCOCC4)nc32)CCN(C(=O)C2CCC2)C1 [Example 342, {(3R)-3-[4-(2-aminopyrimidin-5-yl)-2-(morpholin-4-yl)-5,6-dihydro-7H-pyrrolo[2,3-d]pyrimidin-7-yl]-3-methylpyrrolidin-1-yl}(cyclobutyl)meth-anone], which “PI3KA_Act Ki” value is on record?
A: The value was 0.141 nM.

Q: With C[C@]1(N2CCc3c(-c4cnc(N)nc4)nc(N4CCOCC4)nc32)CCN(C(=O)C2(O)CCC2)C1 [Example 343, {(3S)-3-[4-(2-aminopyrimidin-5-yl)-2-(morpholin-4-yl)-5,6-dihydro-7H-pyrrolo[2,3-d]pyrimidin-7-yl]-3-methylpyrrolidin-1-yl}(1-hydroxycyclobutyl) methanone] as the compound, how does the “PI3KA_Act Ki” value read?
A: The value was 0.089 nM.

Q: C[C@@]1(N2CCc3c(-c4cnc(N)nc4)nc(N4CCOCC4)nc32)CCN(C(=O)C2(O)CCC2)C1 [Example 344, {(3R)-3-[4-(2-aminopyrimidin-5-yl)-2-(morpholin-4-yl)-5,6-dihydro-7H-pyrrolo[2,3-d]pyrimidin-7-yl]-3-methylpyrrolidin-1-yl}(1-hydroxycyclobutyl) methanone] was tested. Which “PI3KA_Act Ki” value did it give?
A: Its value is 0.098 nM.

Q: How did the “PI3KA_Act Ki” value turn out when C[C@]1(N2CCc3c(-c4cnc(N)nc4)nc(N4CCOCC4)nc32)CCN(C(=O)C2CC(O)C2)C1 (stereo partly drawn) [Example 345, {(3S)-3-[4-(2-aminopyrimidin-5-yl)-2-(morpholin-4-yl)-5,6-dihydro-7H-pyrrolo[2,3-d]pyrimidin-7-yl]-3-methylpyrrolidin-1-yl}(3-hydroxycyclobutyl) methanone] was run?
A: The value was 0.028 nM.

Q: C[C@]1(N2CCc3c(-c4cnc(N)nc4)nc(N4CCOCC4)nc32)CCN(C(=O)C2(N)CCC2)C1 [Example 346, (1-aminocyclobutyl) {(3S)-3-[4-(2-aminopyrimidin-5-yl)-2-(morpholin-4-yl)-5,6-dihydro-7H-pyrrolo[2,3-d]pyrimidin-7-yl]-3-methylpyrrolidin-1-yl}methanone] was tested. Which “PI3KA_Act Ki” value did it give?
A: Its value is 0.125 nM.

Q: With C[C@]1(N2CCc3c(-c4cnc(N)nc4)nc(N4CCOCC4)nc32)CCN(C(=O)[C@@H]2CCN2)C1.Cl [Example 347, {(3S)-3-[4-(2-aminopyrimidin-5-yl)-2-(morpholin-4-yl)-5,6-dihydro-7H-pyrrolo[2,3-d]pyrimidin-7-yl]-3-methylpyrrolidin-1-yl}[(2S)-azetidin-2-yl]methanone hydrochloride] as the compound, how does the “PI3KA_Act Ki” value read?
A: Its value is 0.075 nM.

Q: Which “PI3KA_Act Ki” value does the source give for C[C@]1(N2CCc3c(-c4cnc(N)nc4)nc(N4CCOCC4)nc32)CCN(C(=O)C2CCN2)C1.Cl (stereo partly drawn) [Example 348, {(3S)-3-[4-(2-aminopyrimidin-5-yl)-2-(morpholin-4-yl)-5,6-dihydro-7H-pyrrolo[2,3-d]pyrimidin-7-yl]-3-methylpyrrolidin-1-yl}(azetidin-2-yl)methanone hydrochloride] here?
A: The value was 0.066 nM.

Q: How did the “PI3KA_Act Ki” value turn out when C[C@]1(N2CCc3c(-c4cnc(N)nc4)nc(N4CCOCC4)nc32)CCN(C(=O)C2CNC2)C1.Cl [Example 349, {(3S)-3-[4-(2-aminopyrimidin-5-yl)-2-(morpholin-4-yl)-5,6-dihydro-7H-pyrrolo[2,3-d]pyrimidin-7-yl]-3-methylpyrrolidin-1-yl}(azetidin-3-yl)methanone hydrochloride] was run?
A: Its value is 0.026 nM.

Q: For C[C@]1(N2CCc3c(-c4cnc(N)nc4)nc(N4CCOCC4)nc32)CCN(C(=O)[C@]2(C)CCN2)C1.Cl [Example 350, {(3S)-3-[4-(2-aminopyrimidin-5-yl)-2-(morpholin-4-yl)-5,6-dihydro-7H-pyrrolo[2,3-d]pyrimidin-7-yl]-3-methylpyrrolidin-1-yl}[(2S)-2-methylazetidin-2-yl]methanone hydrochloride], which “PI3KA_Act Ki” value is on record?
A: The value was 0.045 nM.

Q: How did the “PI3KA_Act Ki” value turn out when C[C@]1(N2CCc3c(-c4cnc(N)nc4)nc(N4CCOCC4)nc32)CCN(C(=O)[C@@]2(C)CCN2)C1 [Example 351, {(3S)-3-[4-(2-aminopyrimidin-5-yl)-2-(morpholin-4-yl)-5,6-dihydro-7H-pyrrolo[2,3-d]pyrimidin-7-yl]-3-methylpyrrolidin-1-yl}[(2R)-2-methylazetidin-2-yl]methanone] was run?
A: The value was 0.059 nM.

Q: With C[C@]1(N2CCc3c(-c4cnc(N)nc4)nc(N4CCOCC4)nc32)CCN(C(=O)C2(F)CNC2)C1.Cl [Example 352, {(3S)-3-[4-(2-aminopyrimidin-5-yl)-2-(morpholin-4-yl)-5,6-dihydro-7H-pyrrolo[2,3-d]pyrimidin-7-yl]-3-methylpyrrolidin-1-yl}(3-fluoroazetidin-3-yl)methanone hydrochloride] as the compound, how does the “PI3KA_Act Ki” value read?
A: The value was under 0.018 nM.

Q: How did the “PI3KA_Act Ki” value turn out when CN1CC[C@@H]1C(=O)N1CC[C@](C)(N2CCc3c(-c4cnc(N)nc4)nc(N4CCOCC4)nc32)C1 [Example 353, {(3S)-3-[4-(2-aminopyrimidin-5-yl)-2-(morpholin-4-yl)-5,6-dihydro-7H-pyrrolo[2,3-d]pyrimidin-7-yl]-3-methylpyrrolidin-1-yl}[(2R)-1-methylazetidin-2-yl]methanone] was run?
A: Its value is 0.078 nM.

Q: For CN1CC[C@H]1C(=O)N1CC[C@](C)(N2CCc3c(-c4cnc(N)nc4)nc(N4CCOCC4)nc32)C1 [Example 354, {(3S)-3-[4-(2-aminopyrimidin-5-yl)-2-(morpholin-4-yl)-5,6-dihydro-7H-pyrrolo[2,3-d]pyrimidin-7-yl]-3-methylpyrrolidin-1-yl}[(2S)-1-methylazetidin-2-yl]methanone], which “PI3KA_Act Ki” value is on record?
A: Its value is 0.049 nM.
